Measured values: patent US9346815B2, “5-chloro-2-difluoromethoxyphenyl pyrazolopyrimidine compounds, compositions and methods of use thereof” (Genentech, Inc., priority 2014, dated 2016)

Tests used:
[1] = biological target: isolated recombinant JAK2 kinase domain (Homo sapiens (Human), UniProt O60674); assay: JAK2 enzyme assay (Caliper LabChip, peptide phosphorylation); type: biochemical; details: 25 μM ATP
[2] = tested on: JAK1-dependent STAT6 phosphorylation downstream of IL-13 stimulation in TF-1 human erythroleukemia cells; assay: JAK1 pathway assay in TF-1 cells (IL-13-pSTAT6, MSD); type: cell-based; details: Homo sapiens, TF-1, TF-1 cells, read-out: IL13-pSTAT6 EC50_TF-1
Description: JAK1 Pathway Assay in Cell Lines was Carried Out as Follows:
Inhibitor potency (EC50) was determined in cell-based assays designed to measure JAK1 dependent STAT phosphorylation.
In one assay approach, TF-1 human erythroleukemia cells obtained from the American Type Culture Collection (ATCC; Manassas, Va.) were used to measure JAK1-dependent STAT6 phosphorylation downstream of IL-13 stimulation. Prior to use in the assays, TF-1 cells were starved of GM-CSF overnight in OptiMEM medium (Life Technologies, Grand Island, N.Y.) supplemented with 0.5% charcoal/dextran stripped fetal bovine serum (FBS), 0.1 mM non-essential amino acids (NEAA), and 1 mM sodium pyruvate. The assays were run in 384-well plates in serum-free OptiMEM medium using 300,000 cells per well. In a second assay approach, BEAS-2B human bronchial epithelial cells obtained from ATCC were plated at 100,000 cells per well of a 96-well plate one day prior to the experiment. The BEAS-2B assay was run in complete growth medium (bronchial epithelial basal medium plus bulletkit; Lonza; Basel, Switzerland).
Test compounds were serially diluted 1:2 in DMSO and then diluted 1:50 in medium just before use. Diluted compounds were added to the cells, for a final DMSO concentration of 0.2%, and incubated for 30 min (for the TF-1 assay) or 1 hr (for the BEAS-2B assay) at 37° C. Then, cells were stimulated with human recombinant cytokine at their respective EC90 concentrations, as previously determined for each individual lot. Cells were stimulated with IL-13 (R&D Systems, Minneapolis, Minn.) for 15 min at 37° C. The TF-1 cell reactions were stopped by the direct addition of 10× lysis buffer (Cell Signaling Technologies, Danvers, Mass.), whereas the BEAS-2B cell incubations were halted by the removal of medium and addition of 1× lysis buffer. The resultant samples were frozen in the plates at −80° C. Compound mediated inhibition of STAT6 phosphorylation was measured in the cell lysates using MesoScale Discovery (MSD) technology (Gaithersburg, Md.).

[3] = biological target: isolated recombinant JAK1 kinase domain (Homo sapiens (Human), UniProt P23458); assay: JAK1 enzyme assay (Caliper LabChip, peptide phosphorylation); type: biochemical; details: isolated recombinant JAK1 kinase domain, 25 μM ATP
isolated recombinant JAK1 kinase domain, sequence (P23458 875-1153): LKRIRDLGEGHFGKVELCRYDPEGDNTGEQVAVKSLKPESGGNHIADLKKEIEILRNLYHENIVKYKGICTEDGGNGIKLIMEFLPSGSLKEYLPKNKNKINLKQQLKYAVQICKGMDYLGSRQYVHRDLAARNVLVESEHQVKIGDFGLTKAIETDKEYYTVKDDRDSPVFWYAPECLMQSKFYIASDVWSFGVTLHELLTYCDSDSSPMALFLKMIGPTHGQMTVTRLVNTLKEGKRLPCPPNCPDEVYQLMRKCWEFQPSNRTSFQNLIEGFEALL

isolated recombinant JAK2 kinase domain, sequence (O60674 849-1124): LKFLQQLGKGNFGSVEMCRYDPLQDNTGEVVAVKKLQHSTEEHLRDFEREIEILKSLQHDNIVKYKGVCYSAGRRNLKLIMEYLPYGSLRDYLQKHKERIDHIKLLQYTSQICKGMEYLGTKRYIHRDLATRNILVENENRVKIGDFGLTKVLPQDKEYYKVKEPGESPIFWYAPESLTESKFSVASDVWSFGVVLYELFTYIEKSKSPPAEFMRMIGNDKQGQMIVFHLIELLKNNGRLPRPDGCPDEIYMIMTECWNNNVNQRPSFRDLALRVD

| Compound | Ki [1] [nM] | EC50 [2] [nM] | Ki [3] [nM] |
| --- | --- | --- | --- |
| CN(C)C(=O)N1CCC(CN2C[C@@H]3CN(C(=O)Cn4cc(NC(=O)c5cnn6cccnc56)c(-c5cc(Cl)ccc5OC(F)F)n4)C[C@@H]3C2)CC1 [Example 36, N-[1-[2-[(3aR,6aS)-2-[[1-(dimethylcarbamoyl)-4-piperidyl]methyl]-1,3,3a,4,6,6a-hexahydropyrrolo[3,4-c]pyrrol-5-yl]-2-oxo-ethyl]-3-[5-chloro-2-(difluoromethoxy)phenyl]pyrazol-4-yl]pyrazolo[1,5-a]pyrimidine-3-carboxamide] | 0.62 | 57.6 |  |
| CN1C[C@@H]2CN(C(=O)c3nc(-c4cc(Cl)ccc4OC(F)F)c(NC(=O)c4cnn5cccnc45)s3)C[C@@H]2C1 [Example 264, Pyrazolo[1,5-a]pyrimidine-3-carboxylic acid [4-(5-chloro-2-difluoromethoxy-phenyl)-2-(5-methyl-hexahydro-pyrrolo[3,4-c]pyrrole-2-carbonyl)-thiazol-5-yl]-amide] | 2.38 | 19.8 | 2.69 |
| O=C(Nc1cn(CC(=O)N2CCC3(CNC3)C2)nc1-c1cc(Cl)ccc1OC(F)F)c1cnn2cccnc12 [Example 219, N-[3-[5-chloro-2-(difluoromethoxy)phenyl]-1-[2-(2,6-diazaspiro[3.4]octan-6-yl)-2-oxo-ethyl]pyrazol-4-yl]pyrazolo[1,5-a]pyrimidine-3-carboxamide] | 1.28 | 1030 |  |
| O=C(CCCN1CCC(n2cc(NC(=O)c3cnn4cccnc34)c(-c3cc(Cl)ccc3OC(F)F)n2)CC1)NC1COC1 [Example 153, N-[3-[5-chloro-2-(difluoromethoxy)phenyl]-1-[1-[4-(oxetan-3-ylamino)-4-oxo-butyl]-4-piperidyl]pyrazol-4-yl]pyrazolo[1,5-a]pyrimidine-3-carboxamide] | 0.27 | 36.5 | 1.55 |
| CCN1CC2CN(C(=O)Cn3cc(NC(=O)c4c(N)nn5cccnc45)c(-c4cc(Cl)ccc4OC(F)F)n3)CC2C1 (stereo not shown) [Example 11, 2-amino-N-[3-[5-chloro-2-(difluoromethoxy)phenyl]-1-[2-(2-ethyl-1,3,3a,4,6,6a-hexahydropyrrolo[3,4-c]pyrrol-5-yl)-2-oxo-ethyl]pyrazol-4-yl]pyrazolo[1,5-a]pyrimidine-3-carboxamide] | 0.3 | 11.8 | 1.05 |
| CN1CC2(CCN(C(=O)Cn3cc(NC(=O)c4cnn5cccnc45)c(-c4cc(Cl)ccc4OC(F)F)n3)CC2)C1 [Example 218, N-[3-[5-chloro-2-(difluoromethoxy)phenyl]-1-[2-(2-methyl-2,7-diazaspiro[3.5]nonan-7-yl)-2-oxo-ethyl]pyrazol-4-yl]pyrazolo[1,5-a]pyrimidine-3-carboxamide] |  | 75.6 | 1.01 |
| CN1CCC2CN(C(=O)Cn3cc(NC(=O)c4c(N)nn5cccnc45)c(-c4cc(Cl)ccc4OC(F)F)n3)CCC21 (stereo not shown) [Example 56, 2-amino-N-[3-[5-chloro-2-(difluoromethoxy)phenyl]-1-[2-(1-methyl-3,3a,4,6,7,7a-hexahydro-2H-pyrrolo[3,2-c]pyridin-5-yl)-2-oxo-ethyl]pyrazol-4-yl]pyrazolo[1,5-a]pyrimidine-3-carboxamide] |  | 6.9 | 0.74 |
| CN(C)C1CCN(C(=O)C2CCN(c3nc(-c4cc(Cl)ccc4OC(F)F)c(NC(=O)c4cnn5cccnc45)s3)CC2)CC1 [Example 197, N-[4-[5-chloro-2-(difluoromethoxy)phenyl]-2-[4-[4-(dimethylamino)piperidine-1-carbonyl]-1-piperidyl]thiazol-5-yl]pyrazolo[1,5-a]pyrimidine-3-carboxamide] |  | 6.2 |  |
| O=C(Nc1sc(CN2CCCCC2)nc1-c1cc(Cl)ccc1OC(F)F)c1cnn2cccnc12 [Example 263, N-[4-[5-chloro-2-(difluoromethoxy)phenyl]-2-(1-piperidylmethyl)thiazol-5-yl]pyrazolo[1,5-a]pyrimidine-3-carboxamide] |  | 19.2 | 1.5 |
| O=C(Nc1cn(CC(=O)N2CCC[C@H]2CO)nc1-c1cc(Cl)ccc1OC(F)F)c1cnn2cccnc12 [Example 268, N-[3-[5-chloro-2-(difluoromethoxy)phenyl]-1-[2-[(2S)-2-(hydroxymethyl)pyrrolidin-1-yl]-2-oxo-ethyl]pyrazol-4-yl]pyrazolo[1,5-a]pyrimidine-3-carboxamide] |  | 5.5 | 0.49 |
| Nc1nn2cccnc2c1C(=O)Nc1cn(C2CCN(CCCC(=O)N3CCOCC3)CC2)nc1-c1cc(Cl)ccc1OC(F)F [Example 147, 2-amino-N-[3-[5-chloro-2-(difluoromethoxy)phenyl]-1-[1-(4-morpholino-4-oxo-butyl)-4-piperidyl]pyrazol-4-yl]pyrazolo[1,5-a]pyrimidine-3-carboxamide] |  | 11.8 | 0.55 |
| Nc1nn2cccnc2c1C(=O)Nc1cn(C2CCCNCC2)nc1-c1cc(Cl)ccc1OC(F)F (stereo not shown) [Example 171, 2-amino-N-[1-(azepan-4-yl)-3-[5-chloro-2-(difluoromethoxy)phenyl]pyrazol-4-yl]pyrazolo[1,5-a]pyrimidine-3-carboxamide] | 0.17 | 21.9 |  |
| CN1C[C@H]2C[C@@H]1CN2C(=O)Cn1cc(NC(=O)c2c(N)nn3cccnc23)c(-c2cc(Cl)ccc2OC(F)F)n1 [Example 252, 2-amino-N-[3-[5-chloro-2-(difluoromethoxy)phenyl]-1-[2-[(1R,4R)-5-methyl-2,5-diazabicyclo[2.2.1]heptan-2-yl]-2-oxo-ethyl]pyrazol-4-yl]pyrazolo[1,5-a]pyrimidine-3-carboxamide] |  | 43 |  |
| CN1CCC(n2cc(NC(=O)c3c(N)nn4cccnc34)c(-c3cc(Cl)ccc3OC(F)F)n2)CC1 [Example 184, 2-amino-N-[3-[5-chloro-2-(difluoromethoxy)phenyl]-1-(1-methyl-4-piperidyl)pyrazol-4-yl]pyrazolo[1,5-a]pyrimidine-3-carboxamide] |  | 3.5 |  |
| NC[C@@H]1CCCN1C(=O)Cn1cc(NC(=O)c2cnn3cccnc23)c(-c2cc(Cl)ccc2OC(F)F)n1 [Example 81, N-[1-[2-[(2S)-2-(aminomethyl)pyrrolidin-1-yl]-2-oxo-ethyl]-3-[5-chloro-2-(difluoromethoxy)phenyl]pyrazol-4-yl]pyrazolo[1,5-a]pyrimidine-3-carboxamide] |  | 253 | 5.35 |
| O=C(Nc1cn(CC(=O)N2CCC(NCCc3ccc(C(F)(F)F)cc3)CC2)nc1-c1cc(Cl)ccc1OC(F)F)c1cnn2cccnc12 [Example 93, N-[3-[5-chloro-2-(difluoromethoxy)phenyl]-1-[2-oxo-2-[4-[2-[4-(trifluoromethyl)phenyl]ethylamino]-1-piperidyl]ethyl]pyrazol-4-yl]pyrazolo[1,5-a]pyrimidine-3-carboxamide] |  | 95.9 | 1.28 |
| N#CC1(c2ccccc2)CCN(C(=O)Cn2cc(NC(=O)c3cnn4cccnc34)c(-c3cc(Cl)ccc3OC(F)F)n2)CC1 [Example 281, N-[3-[5-chloro-2-(difluoromethoxy)phenyl]-1-[2-(4-cyano-4-phenyl-1-piperidyl)-2-oxo-ethyl]pyrazol-4-yl]pyrazolo[1,5-a]pyrimidine-3-carboxamide] | 0.45 | 2.2 |  |
| Nc1nn2cccnc2c1C(=O)Nc1cn(CC(=O)N2C[C@H]3CN(CC4CC4)C[C@H]3C2)nc1-c1cc(Cl)ccc1OC(F)F [Example 57, N-[1-[2-[(3aS,6aR)-2-(cyclopropylmethyl)-1,3,3a,4,6,6a-hexahydropyrrolo[3,4-c]pyrrol-5-yl]-2-oxo-ethyl]-3-[5-chloro-2-(difluoromethoxy)phenyl]pyrazol-4-yl]-2-amino-pyrazolo[1,5-a]pyrimidine-3-carboxamide] | 0.13 | 15 |  |
| CN1CC2(CCN(C(=O)Cn3cc(NC(=O)c4cnn5cccnc45)c(-c4cc(Cl)ccc4OC(F)F)n3)C2)C1 [Example 221, N-[3-[5-chloro-2-(difluoromethoxy)phenyl]-1-[2-(2-methyl-2,6-diazaspiro[3.4]octan-6-yl)-2-oxo-ethyl]pyrazol-4-yl]pyrazolo[1,5-a]pyrimidine-3-carboxamide] |  | 130 | 0.92 |
| O=C(Nc1cn(CC(=O)N2CCC(O)(CO)CC2)nc1-c1cc(Cl)ccc1OC(F)F)c1cnn2cccnc12 [Example 272, N-[3-[5-chloro-2-(difluoromethoxy)phenyl]-1-[2-[4-hydroxy-4-(hydroxymethyl)-1-piperidyl]-2-oxo-ethyl]pyrazol-4-yl]pyrazolo[1,5-a]pyrimidine-3-carboxamide] | 0.78 |  | 0.33 |
